Ki data for 14 compounds are collected here from US9540352B2, “Substituted 1,7-naphthyridines as dopamine D1 ligands” (PFIZER INC., priority 2014, dated 2017).

In the experiment the target is Human D1 Receptor (Homo sapiens (Human), UniProt P21728). Kind of experiment: Human D1 receptor binding assay ([3H]-SCH23390 competition). The following applies: over-expressing LTK human cell lines; 0.5 nM [3H]-SCH23390; 30 min at 37 °C; footnote a: geometric mean of ≥5 determinations; footnote b: single determination; read-out: Human D1 Receptor Binding, Ki (nM); Geometric mean of 2-4 determinations (unless otherwise indicated). As to the method: The affinity of the compounds described herein was determined by competition binding assays similar to those described in Ryman-Rasmussen et al., “Differential activation of adenylate cyclase and receptor internalization by novel dopamine D1 receptor agonists”, Molecular Pharmacology 68(4):1039-1048 (2005).
Chain of Human D1 Receptor (P21728 whole entry): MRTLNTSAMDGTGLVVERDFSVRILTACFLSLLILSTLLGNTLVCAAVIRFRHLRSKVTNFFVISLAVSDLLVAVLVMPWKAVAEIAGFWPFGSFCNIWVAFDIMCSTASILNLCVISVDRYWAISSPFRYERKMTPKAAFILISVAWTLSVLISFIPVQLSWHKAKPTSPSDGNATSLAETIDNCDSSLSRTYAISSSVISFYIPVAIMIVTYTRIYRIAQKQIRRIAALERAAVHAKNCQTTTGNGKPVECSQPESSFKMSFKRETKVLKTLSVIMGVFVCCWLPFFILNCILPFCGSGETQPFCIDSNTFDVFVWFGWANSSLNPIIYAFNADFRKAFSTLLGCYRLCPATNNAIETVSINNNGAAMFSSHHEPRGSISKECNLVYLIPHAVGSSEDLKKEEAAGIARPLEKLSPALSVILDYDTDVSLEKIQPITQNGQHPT
D1 binding assays were performed using over-expressing LTK human cell lines. […] These ligand and tissue concentrations were used in time course studies to determine linearity and equilibrium conditions for binding. Binding was at equilibrium with the specified amount of tissue in 30 minutes at 37° C. […] The pellet was resuspended in assay buffer [50 mM Tris (pH 7.4@ RT) containing 4 mM MgSO4 and 0.5 mM EDTA]. […] Non-specific binding was determined by radioligand binding in the presence of a saturating concentration of (+)-Butaclamol (10 μM), a D1 antagonist. After a 30 minute incubation period at 37° C., assay samples were rapidly filtered through Unifilter-96 GF/B PEI-coated filter plates and rinsed with 50 mM Tris buffer (pH 7.4 at 4° C.). […] The IC50 value (concentration at which 50% inhibition of specific binding occurs) was calculated by linear regression of the concentration-response data in Microsoft Excel. Ki values were calculated according to the Cheng-Prusoff equation: […]

A word on the Ki: it is the dissociation constant of the complex between target and ligand, obtained from inhibition or displacement. Turning to `Cc1cc(Oc2nccc3cccnc23)ccc1-c1c(C)c(=O)[nH]c(=O)n1C` [Example 1, 1,5-Dimethyl-6-[2-methyl-4-(1,7-naphthyridin-8-yloxy)phenyl]pyrimidine-2,4(1H,3H)-dione], the Ki amounted to 28.5 nM.

With `Cc1cc(Oc2nccc3ccncc23)ccc1-c1c(C)n[nH]c(=O)c1C` [Example 8, 4,6-dimethyl-5-[2-methyl-4-(2,7-naphthyridin-1-yloxy)phenyl]pyridazin-3(2H)-one], the inhibition constant Ki was 141 nM.

For `Cc1cc(Oc2nccc3nccnc23)ccc1-c1c(C)n[nH]c(=O)c1C` [Example 9, 4,6-dimethyl-5-[2-methyl-4-(pyrido[3,4-b]pyrazin-5-yloxy)phenyl]pyridazin-3(2H)-one], the Ki was determined as 306 nM.

Regarding `Cc1n[nH]c(=O)c(C)c1-c1ccc(Oc2nccc3cccnc23)cc1` [Example 4, 4,6-Dimethyl-5-[4-(1,7-naphthyridin-8-yloxy)phenyl]pyridazin-3(2H)-one], the inhibitory constant (Ki) turned out to be 205 nM.

For the compound `Cc1cc(Oc2nccc3cccnc23)ccc1-c1c(C)ncnc1C` [Example 6, 8-[4-(4,6-dimethylpyrimidin-5-yl)-3-methylphenoxy]-1,7-naphthyridine], the inhibition constant (Ki) was 105 nM.

With `Cc1cc(Oc2nccc3cccnc23)ccc1-c1c(C)n[nH]c(=O)c1C` (single isomer, unassigned) [Example 3, (−)-4,6-Dimethyl-5-[2-methyl-4-(1,7-naphthyridin-8-yloxy)phenyl]pyridazin-3(2H)-one], the Ki was found to be 102 nM.

For the compound `Cc1c(-c2ccc(Oc3nccc4cccnc34)cc2)n(C)c(=O)[nH]c1=O` [Example 7, 1,5-dimethyl-6-[4-(1,7-naphthyridin-8-yloxy)phenyl]pyrimidine-2,4(1H,3H)-dione], the Ki came out at 119 nM.

Consider `Cc1cc(Oc2nccc3ccccc23)ccc1-c1c(C)c(=O)[nH]c(=O)n1C` [Example 5, 6-[4-(Isoquinolin-1-yloxy)-2-methylphenyl]-1,5-dimethylpyrimidine-2,4(1H,3H)-dione], for which the Ki was 1.9 nM.

As to `Cc1cc(Oc2nccc3ccccc23)ccc1-c1c(C)n[nH]c(=O)c1C` [Example 11, 5-[4-(isoquinolin-1-yloxy)-2-methylphenyl]-4,6-dimethylpyridazin-3(2H)-one], the inhibitory constant (Ki) was 7.8 nM.

For `Cc1cc(Oc2nccc3cccnc23)ccc1-c1c(C)n[nH]c(=O)c1C` (single isomer, unassigned) [Example 2, (+)-4,6-Dimethyl-5-[2-methyl-4-(1,7-naphthyridin-8-yloxy)phenyl]pyridazin-3(2H)-one], the inhibition constant (Ki) is 115 nM.

In the case of `Cc1cc(Oc2nccc3ncccc23)ccc1-c1c(C)n[nH]c(=O)c1C` [Example 10, 4,6-dimethyl-5-[2-methyl-4-(1,6-naphthyridin-5-yloxy)phenyl]pyridazin-3(2H)-one], the Ki was found to be 124 nM.

Consider `Cc1cc(Oc2nccc3ccc(C#N)cc23)ccc1-c1c(C)n[nH]c(=O)c1C` [Example 13, 1-[4-(3,5-dimethyl-6-oxo-1,6-dihydropyridazin-4-yl)-3-methylphenoxy]isoquinoline-7-carbonitrile], for which the Ki worked out at 334 nM.

As to `Cc1cc(Oc2nccc3cccc(C#N)c23)ccc1-c1c(C)n[nH]c(=O)c1C` [Example 14, 1-[4-(3,5-dimethyl-6-oxo-1,6-dihydropyridazin-4-yl)-3-methylphenoxy]isoquinoline-8-carbonitrile], the Ki is 261 nM.

On to `COc1ccc2ccnc(Oc3ccc(-c4c(C)n[nH]c(=O)c4C)c(C)c3)c2c1` [Example 12, 5-{4-[(7-methoxyisoquinolin-1-yl)oxy]-2-methylphenyl}-4,6-dimethylpyridazin-3(2H)-one], for which the Ki came out at 186 nM.
